Test in all cases: relative viability (nuclei count vs DMSO), 5 days (fraction); higher = more cells survive
Compound in the experiment “Sulindac + OSI-027”: CC1=C(CC(=O)O)c2cc(F)ccc2/C1=C\c1ccc([S+](C)[O-])cc1 [Sulindac] + COc1cccc2cc(-c3nc([C@H]4CC[C@H](C(=O)O)CC4)n4ncnc(N)c34)[nH]c12 [OSI-027] (partner 0.5 µM)
In outline:
(§1)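 Lung cancer cell lines were pin-tool dosed in 1536-well plates on the day after seeding, with either a lone drug or a fixed anchor-drug dose plus five library-drug doses (not always all listed) in √10 steps. Nuclei were counted on 4× images after 5 days. Relative viability is the ratio of treated-well to vehicle-well nuclei counts, with each value a median of duplicate plates.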

Compound in experiment [1]: CN[C@@H]1C[C@H]2O[C@@](C)([C@@H]1OC)n1c3ccccc3c3c4c(c5c6ccccc6n2c5c31)C(=O)NC4 [Staurosporine] + CC(C)C[C@H](NC(=O)[C@H](Cc1ccccc1)NC(=O)c1cnccn1)B(O)O [Bortezomib] (partner 0.002 µM)
In outline:
as §1

Compound in the experiment “Sulindac + Phenformin”: CC1=C(CC(=O)O)c2cc(F)ccc2/C1=C\c1ccc([S+](C)[O-])cc1 [Sulindac] + N=C(N)NC(=N)NCCc1ccccc1 [Phenformin] (partner 250 µM)
The method in brief:
as §1

Compound in experiment [2]: O=c1[nH]cc(F)c(=O)[nH]1 [5-Fluorouracil] + CC(C)C[C@H](NC(=O)[C@H](Cc1ccccc1)NC(=O)c1cnccn1)B(O)O [Bortezomib] (partner 0.002 µM)
The method in brief: as §1

In the case of NCI-H2023, the relative viability came to 0.501 in the experiment with Sulindac + OSI-027 (first compound 0.08 µM); 0.509 with Sulindac + OSI-027 (first compound 0.253 µM); 0.399 with Sulindac + OSI-027 (first compound 0.8 µM); 0.387 with Sulindac + OSI-027 (first compound 2.53 µM); 0.389 in the experiment with Sulindac + OSI-027 (first compound 8 µM); 0.612 in experiment [1] (first compound 0.005 µM). Besides, the relative viability in experiment [1] (first compound 0.01581 µM) is 0.19; in experiment [1] (first compound 0.05 µM) it was 0.181; in experiment [1] (first compound 0.1581 µM) it was 0.0797; in experiment [1] (first compound 0.5 µM), 0.0526; in the experiment with Sulindac + Phenformin (first compound 0.08 µM), 0.423; in the experiment with Sulindac + Phenformin (first compound 0.253 µM), 0.498. Also, the relative viability with Sulindac + Phenformin (first compound 0.8 µM) amounted to 0.325; in the experiment with Sulindac + Phenformin (first compound 2.53 µM), 0.419; in the experiment with Sulindac + Phenformin (first compound 8 µM) it was 0.571; in experiment [2] (first compound 0.02 µM), 0.803; in experiment [2] (first compound 0.2 µM), 0.214; in experiment [2] (first compound 0.6325 µM), 0.11. The relative viability in experiment [2] (first compound 2 µM) was 0.0857.

Regarding NCI-H2085, the relative viability with Sulindac + OSI-027 (first compound 0.08 µM) was 0.8; with Sulindac + OSI-027 (first compound 0.253 µM), 0.822; with Sulindac + OSI-027 (first compound 0.8 µM), 0.674; with Sulindac + OSI-027 (first compound 2.53 µM), 0.831; in the experiment with Sulindac + OSI-027 (first compound 8 µM) it was 0.755; in experiment [1] (first compound 0.005 µM), 0.856. Also, the relative viability in experiment [1] (first compound 0.01581 µM) is 0.565; in experiment [1] (first compound 0.05 µM), 0.604; in experiment [1] (first compound 0.1581 µM), 0.499; in experiment [1] (first compound 0.5 µM) it was 0.402; with Sulindac + Phenformin (first compound 0.08 µM), 0.767; with Sulindac + Phenformin (first compound 0.253 µM), 0.912. The relative viability was found to be 0.593 with Sulindac + Phenformin (first compound 0.8 µM); 0.739 in the experiment with Sulindac + Phenformin (first compound 2.53 µM); 0.751 with Sulindac + Phenformin (first compound 8 µM); 1.09 in experiment [2] (first compound 0.02 µM); 1.13 in experiment [2] (first compound 0.2 µM); 0.995 in experiment [2] (first compound 0.6325 µM). For the same cell line, the relative viability in experiment [2] (first compound 2 µM) amounted to 0.738.

For the cell line NCI-H2087, the relative viability with Sulindac + OSI-027 (first compound 0.08 µM) worked out at 0.67; in the experiment with Sulindac + OSI-027 (first compound 0.253 µM), 0.595; with Sulindac + OSI-027 (first compound 2.53 µM), 0.46; with Sulindac + OSI-027 (first compound 8 µM), 0.567; in experiment [1] (first compound 0.005 µM), 0.761; in experiment [1] (first compound 0.01581 µM), 0.548. Besides, the relative viability in experiment [1] (first compound 0.05 µM) worked out at 0.39; in experiment [1] (first compound 0.1581 µM), 0.175; in experiment [1] (first compound 0.5 µM) it was 0.113; in the experiment with Sulindac + Phenformin (first compound 0.08 µM), 0.58; in the experiment with Sulindac + Phenformin (first compound 0.253 µM), 0.529; with Sulindac + Phenformin (first compound 2.53 µM), 0.431. Also, the relative viability turned out to be 0.51 in the experiment with Sulindac + Phenformin (first compound 8 µM); 0.884 in experiment [2] (first compound 0.02 µM); 0.757 in experiment [2] (first compound 0.2 µM); 0.599 in experiment [2] (first compound 0.6325 µM); 0.497 in experiment [2] (first compound 2 µM).

In the case of NCI-H2126, the relative viability with Sulindac + OSI-027 (first compound 0.08 µM) was 0.578; in the experiment with Sulindac + OSI-027 (first compound 0.253 µM), 0.698; with Sulindac + OSI-027 (first compound 0.8 µM), 0.674; in the experiment with Sulindac + OSI-027 (first compound 2.53 µM), 0.741; with Sulindac + OSI-027 (first compound 8 µM), 0.771; in experiment [1] (first compound 0.005 µM), 1.1. In addition, the relative viability in experiment [1] (first compound 0.01581 µM) was 0.817; in experiment [1] (first compound 0.05 µM) it was 0.777; in experiment [1] (first compound 0.1581 µM) it was 0.371; in experiment [1] (first compound 0.5 µM), 0.387; with Sulindac + Phenformin (first compound 0.08 µM) it was 0.513; with Sulindac + Phenformin (first compound 0.253 µM), 0.541. The relative viability with Sulindac + Phenformin (first compound 0.8 µM) stood at 0.539; with Sulindac + Phenformin (first compound 2.53 µM) it was 0.46; in the experiment with Sulindac + Phenformin (first compound 8 µM) it was 0.593; in experiment [2] (first compound 0.02 µM), 0.948; in experiment [2] (first compound 0.2 µM), 0.583; in experiment [2] (first compound 0.6325 µM) it was 0.337. Also, the relative viability in experiment [2] (first compound 2 µM) was 0.318.

With NCI-H2228, the relative viability with Sulindac + OSI-027 (first compound 0.08 µM) was found to be 0.794; in the experiment with Sulindac + OSI-027 (first compound 0.253 µM), 0.687; in the experiment with Sulindac + OSI-027 (first compound 0.8 µM), 0.533; in the experiment with Sulindac + OSI-027 (first compound 2.53 µM) it was 0.502; with Sulindac + OSI-027 (first compound 8 µM), 0.56; in experiment [1] (first compound 0.005 µM) it was 0.782. Also, the relative viability worked out at 0.421 in experiment [1] (first compound 0.01581 µM); 0.419 in experiment [1] (first compound 0.05 µM); 0.227 in experiment [1] (first compound 0.1581 µM); 0.118 in experiment [1] (first compound 0.5 µM); 0.388 with Sulindac + Phenformin (first compound 0.08 µM); 0.352 in the experiment with Sulindac + Phenformin (first compound 0.253 µM). Moreover, the relative viability in the experiment with Sulindac + Phenformin (first compound 0.8 µM) was 0.254; in the experiment with Sulindac + Phenformin (first compound 2.53 µM), 0.271; with Sulindac + Phenformin (first compound 8 µM), 0.341; in experiment [2] (first compound 0.02 µM), 1.03; in experiment [2] (first compound 0.2 µM), 0.911; in experiment [2] (first compound 0.6325 µM) it was 0.811. For the same cell line, the relative viability in experiment [2] (first compound 2 µM) was 0.442.

On to NCI-H2347, for which the relative viability worked out at 0.398 with Sulindac + OSI-027 (first compound 0.08 µM); 0.363 with Sulindac + OSI-027 (first compound 0.253 µM); 0.301 in the experiment with Sulindac + OSI-027 (first compound 2.53 µM); 0.511 in the experiment with Sulindac + OSI-027 (first compound 8 µM); 1.21 in experiment [1] (first compound 0.005 µM); 0.443 in experiment [1] (first compound 0.01581 µM). Besides, the relative viability in experiment [1] (first compound 0.05 µM) came to 0.359; in experiment [1] (first compound 0.1581 µM), 0.413; in experiment [1] (first compound 0.5 µM), 0.402; in the experiment with Sulindac + Phenformin (first compound 0.08 µM) it was 0.379; with Sulindac + Phenformin (first compound 0.253 µM) it was 0.33; with Sulindac + Phenformin (first compound 2.53 µM), 0.375. Further, the relative viability with Sulindac + Phenformin (first compound 8 µM) was found to be 0.381; in experiment [2] (first compound 0.02 µM), 0.962; in experiment [2] (first compound 0.2 µM), 1.1; in experiment [2] (first compound 0.6325 µM), 0.367; in experiment [2] (first compound 2 µM), 0.446.

These data come from the supplement of paper PMC10307832.
